Test results taken from ChEMBL document CHEMBL2007661, “Compounds: GSK PKIS; Assays: UNC Frye lab” (2012).
Values joined by “and” are separate entries in the source; they are usually repeats but may differ in a detail not shown here. Equal values may be shown once.

Tests used:
Conditions in all cases: at 1 µM
[1] = biological target: T1, Serine/threonine-protein kinase TBK1 (Homo sapiens) (UniProt Q9UHD2)
T1 sequence (whole entry): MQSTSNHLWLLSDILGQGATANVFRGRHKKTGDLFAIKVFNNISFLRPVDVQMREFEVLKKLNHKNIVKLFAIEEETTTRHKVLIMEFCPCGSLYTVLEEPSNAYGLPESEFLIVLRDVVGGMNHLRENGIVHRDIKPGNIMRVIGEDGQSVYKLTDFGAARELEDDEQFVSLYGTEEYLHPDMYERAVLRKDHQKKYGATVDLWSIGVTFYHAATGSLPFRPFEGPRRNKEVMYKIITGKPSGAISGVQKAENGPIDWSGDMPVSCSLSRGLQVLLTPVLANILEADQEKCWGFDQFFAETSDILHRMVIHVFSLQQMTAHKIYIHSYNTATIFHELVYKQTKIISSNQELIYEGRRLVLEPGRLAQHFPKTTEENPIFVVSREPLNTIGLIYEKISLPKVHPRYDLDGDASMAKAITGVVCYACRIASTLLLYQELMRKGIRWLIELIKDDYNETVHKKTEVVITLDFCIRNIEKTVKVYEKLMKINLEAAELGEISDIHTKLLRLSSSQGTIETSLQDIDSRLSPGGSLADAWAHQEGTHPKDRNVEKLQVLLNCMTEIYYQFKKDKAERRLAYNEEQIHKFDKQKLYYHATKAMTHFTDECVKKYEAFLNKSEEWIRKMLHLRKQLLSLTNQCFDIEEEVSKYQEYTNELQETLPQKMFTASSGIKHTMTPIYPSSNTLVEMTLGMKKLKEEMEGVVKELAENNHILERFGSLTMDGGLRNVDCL

[2] = biological target: T2, Inhibitor of nuclear factor kappa-B kinase subunit beta (Homo sapiens) (UniProt O14920)
T2 sequence (whole entry): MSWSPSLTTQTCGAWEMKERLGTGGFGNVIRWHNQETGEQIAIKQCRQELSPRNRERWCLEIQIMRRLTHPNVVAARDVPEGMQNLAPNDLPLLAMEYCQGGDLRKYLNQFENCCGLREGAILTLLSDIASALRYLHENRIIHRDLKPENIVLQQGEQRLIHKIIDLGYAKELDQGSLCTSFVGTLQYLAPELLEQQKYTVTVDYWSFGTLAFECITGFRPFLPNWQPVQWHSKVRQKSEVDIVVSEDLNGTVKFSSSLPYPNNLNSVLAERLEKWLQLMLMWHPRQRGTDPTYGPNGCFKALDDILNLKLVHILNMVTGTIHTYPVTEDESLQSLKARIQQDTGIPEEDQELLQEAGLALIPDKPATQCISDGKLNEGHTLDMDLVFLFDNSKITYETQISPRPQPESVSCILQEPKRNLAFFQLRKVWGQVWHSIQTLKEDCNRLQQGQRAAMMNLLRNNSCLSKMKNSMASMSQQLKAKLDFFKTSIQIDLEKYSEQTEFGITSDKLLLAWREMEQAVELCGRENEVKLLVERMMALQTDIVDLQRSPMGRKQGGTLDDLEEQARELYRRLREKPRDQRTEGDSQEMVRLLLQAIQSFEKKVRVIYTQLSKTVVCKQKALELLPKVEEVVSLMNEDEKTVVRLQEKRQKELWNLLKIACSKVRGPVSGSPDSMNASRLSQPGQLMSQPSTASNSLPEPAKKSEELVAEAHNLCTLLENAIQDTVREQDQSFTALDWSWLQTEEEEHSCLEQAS

[3] = biological target: T3, Inhibitor of nuclear factor kappa-B kinase subunit alpha (Homo sapiens) (UniProt O15111)
T3 sequence (whole entry): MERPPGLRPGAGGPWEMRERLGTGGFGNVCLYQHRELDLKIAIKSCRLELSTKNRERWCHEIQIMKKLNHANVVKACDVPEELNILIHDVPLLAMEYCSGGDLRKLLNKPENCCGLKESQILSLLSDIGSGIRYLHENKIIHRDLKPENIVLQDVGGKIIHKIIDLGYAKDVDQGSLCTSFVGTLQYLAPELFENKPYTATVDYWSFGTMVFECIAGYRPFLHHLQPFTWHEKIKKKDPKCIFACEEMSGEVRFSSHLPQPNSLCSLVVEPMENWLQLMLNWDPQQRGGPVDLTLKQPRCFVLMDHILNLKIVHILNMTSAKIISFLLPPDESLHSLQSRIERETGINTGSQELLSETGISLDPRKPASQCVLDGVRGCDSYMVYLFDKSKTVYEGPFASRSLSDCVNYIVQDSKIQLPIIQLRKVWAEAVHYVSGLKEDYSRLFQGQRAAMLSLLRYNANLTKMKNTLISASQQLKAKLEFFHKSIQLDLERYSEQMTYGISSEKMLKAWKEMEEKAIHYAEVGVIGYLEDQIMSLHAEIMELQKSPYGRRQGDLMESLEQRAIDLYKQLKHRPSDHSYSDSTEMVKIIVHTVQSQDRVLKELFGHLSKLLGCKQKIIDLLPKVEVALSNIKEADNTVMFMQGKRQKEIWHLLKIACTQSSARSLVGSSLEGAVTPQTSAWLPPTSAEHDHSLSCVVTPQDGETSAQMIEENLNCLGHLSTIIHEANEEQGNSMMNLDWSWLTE

With `CS(=O)(=O)CCNCc1ccc(-c2ccc3ncnc(Nc4ccc(OCc5cccc(F)c5)c(C(F)(F)F)c4)c3c2)o1` the inhibition [1] was 3% and 1%, the inhibition [2] was 2% and -2% and the inhibition [3] was -3% and -2%.

`NS(=O)(=O)c1ccc(-c2cc3ccncc3cc2OCc2ccccc2)cc1` was tested, and the inhibition [1] was -1% and 0%, the inhibition [2] was -4% and -6% and the inhibition [3] was 1%.

`COc1ccc(-c2ccc3c(NC(=O)C4CC4)n[nH]c3n2)cc1` was tested, and the inhibition [1] was 4% and 5%, the inhibition [2] was -5% and the inhibition [3] was 1% and 2%.

With `N#Cc1cccc(Nc2ncc(-c3ccccc3)o2)c1` the inhibition [1] was 4%, the inhibition [2] was -2% and -3% and the inhibition [3] was 1% and -1%.

With `Clc1ccc(CNc2nccc(-c3cnn4ncccc34)n2)cc1` the inhibition [1] was -1% and 0%, the inhibition [2] was 5% and -2% and the inhibition [3] was -1%.

`COc1cc(Nc2nccc(Nc3ccc4c(C)n[nH]c4c3)n2)cc(OC)c1OC` was tested, and the inhibition [1] was 33% and 30%, the inhibition [2] was -2% and the inhibition [3] was -1% and -2%.

`COc1ccccc1-c1cc(/C=C2\C(=O)Nc3ncc(Br)cc32)cc(Br)c1O` was tested, and the inhibition [1] was 15% and 7%, the inhibition [2] was -4% and -2% and the inhibition [3] was 0% and 4%.

`COc1cccc(/C=N/Nc2ncnc3c2cnn3-c2cccc(OC)c2)c1` was tested, and the inhibition [1] was 2% and 1%, the inhibition [2] was -1% and -4% and the inhibition [3] was 2% and 21%.

`CCn1c(-c2nonc2N)nc2c(C#CCN)ncc(OCCCN)c21` was tested, and the inhibition [1] was 1% and 4%, the inhibition [2] was -3% and -6% and the inhibition [3] was 22%.

For `Cc1ccc2c(c1)/C(=N/Nc1ccc(S(N)(=O)=O)cc1)C(=O)N2`, the inhibition [1] was -2% and 3%, the inhibition [2] was 4% and 10% and the inhibition [3] was 9% and -3%.

In the case of `COC(=O)c1sc(-n2cnc3cc(OC)c(OC)cc32)cc1OCc1ccccc1C(F)(F)F`, the inhibition [1] is reported as 37% and 39%, the inhibition [2] is reported as -6% and -3% and the inhibition [3] is reported as -1% and 0%.

In the case of `COc1cc(/C=N/Nc2ncnc3[nH]ncc23)ccc1O`, the inhibition [1] is reported as 31% and 33%, the inhibition [2] is reported as -10% and the inhibition [3] is reported as 6%.

For `c1ccc(-c2n[nH]cc2-c2ccnc(-c3ccc(OCCn4ccnc4)cc3)c2)nc1`, the inhibition [1] was -4% and -3%, the inhibition [2] was -2% and -1% and the inhibition [3] was 0% and -1%.

In the case of `C#Cc1cccc(Nc2ncnc3ccc(OCCCCNCCS(C)(=O)=O)cc23)c1`, the inhibition [1] is reported as -4% and 0%, the inhibition [2] is reported as -5% and -6% and the inhibition [3] is reported as 3%.

`Cc1ccc(C(=O)NC(C)C)cc1-c1ccc(C(=O)NCC2CC2)cc1` was tested, and the inhibition [1] was -1% and -2%, the inhibition [2] was -1% and 3% and the inhibition [3] was 0% and -2%.

For `COc1cc2ncn(-c3cc(OCc4ccccc4Cl)c(C(N)=O)s3)c2cc1OC`, the inhibition [1] was 56% and 50%, the inhibition [2] was 2% and 1% and the inhibition [3] was -1%.

In the case of `Fc1cccc(COc2ccc(Nc3ncnc4sc(-c5ccco5)cc34)cc2Cl)c1`, the inhibition [1] is reported as 41% and 42%, the inhibition [2] is reported as 10% and 6% and the inhibition [3] is reported as 14% and 0%.

In the case of `CCc1nccc2c1nc(-c1nonc1N)n2CC`, the inhibition [1] is reported as -2% and 1%, the inhibition [2] is reported as 0% and -3% and the inhibition [3] is reported as 12% and 13%.

`Cn1c(-c2nonc2N)nc2cnccc21` was tested, and the inhibition [1] was -4% and -2%, the inhibition [2] was -4% and -2% and the inhibition [3] was 27% and 23%.

In the case of `COc1cc(N2CCN(C(C)C)CC2)ccc1Nc1nc(Nc2ccc(F)cc2C(N)=O)c2cc[nH]c2n1`, the inhibition [1] is reported as 16% and 10%, the inhibition [2] is reported as 0% and -4% and the inhibition [3] is reported as 3%.

For `O=C(O[C@H]1CN[C@H](C#Cc2cc3ncnc(Nc4ccc(Cc5ccccc5)cc4)c3s2)C1)N1CCOCC1`, the inhibition [1] was 14% and 20%, the inhibition [2] was 2% and 3% and the inhibition [3] was -7%.

`COC(=O)Nc1nc2cc(Oc3ccc(NC(=O)Nc4cccc(Br)c4)cc3)ccc2[nH]1` was tested, and the inhibition [1] was 0% and 2%, the inhibition [2] was -3% and -1% and the inhibition [3] was 2% and 0%.

`NS(=O)(=O)c1ccc(N/N=C2\C(=O)Nc3ccc(C(=O)NCCc4c[nH]cn4)cc32)cc1` was tested, and the inhibition [1] was 32% and 29%, the inhibition [2] was -4% and -2% and the inhibition [3] was 7% and 3%.

With `O=C(O[C@H]1CN[C@H](C#Cc2cc3ncnc(Nc4ccc(OCc5cccc(F)c5)c(Cl)c4)c3s2)C1)N1CCOCC1` the inhibition [1] was 1% and 3%, the inhibition [2] was 0% and -1% and the inhibition [3] was -1% and 0%.

For `COc1cc(C=NNc2ncnc3c2cnn3Cc2ccccc2)ccc1O`, the inhibition [1] was 9% and 14%, the inhibition [2] was -7% and the inhibition [3] was 4%.

For `CCn1c(-c2nonc2N)nc2c(C#CC(C)(C)O)nc(OC[C@@H](N)c3ccccc3)cc21`, the inhibition [1] was 6% and 7%, the inhibition [2] was -6% and -5% and the inhibition [3] was 13% and 12%.

For `COc1c(C(N)=O)cc(-c2ccc(Cl)cc2)cc1-c1ccc(S(N)(=O)=O)cc1`, the inhibition [1] was 0% and 1%, the inhibition [2] was 1% and the inhibition [3] was 0% and -2%.

In the case of `COc1ccc(-c2nn3ncccc3c2-c2ccnc(Nc3cccc(C(F)(F)F)c3)n2)cc1`, the inhibition [1] is reported as -2% and 0%, the inhibition [2] is reported as -1% and -3% and the inhibition [3] is reported as 2%.

For `c1ccc(COc2ccc(Nc3ncnc4ccc(-c5ccco5)cc34)cc2)cc1`, the inhibition [1] was -3% and -2%, the inhibition [2] was -1% and 4% and the inhibition [3] was 3% and 2%.
